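All cell lines were grown in 96-well plates and treated with compound for 48 hours. Definition used: TGI = concentration required for complete inhibition of growth.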
test system: HCC-2998 colon; test: DTP human tumour cell line panel, 48 h

| Structure (SMILES) | TGI [µM] |
| --- | --- |
| O=C1C=CC(=O)c2c1ccc1c3ccccc3n(CCCCCn3c4ccccc4c4ccc5c(c43)C(=O)C=CC5=O)c21 | > 80.8 |
| C=C(Cl)C(=CCl)CCC(Br)C(C)(C)Cl (mixture of isomers) | > 10 |
| Nc1ccc2c(c1)C(=O)N1CCC[C@H]1C(=O)N2 | > 100 |
| Cc1ccc(/C=N/Nc2cc(C)c3cccc(C)c3n2)s1 | 22.7 |
| CC(=O)N(C(C)=O)c1ncc(-n2nc(-c3ccccc3)cc2-c2ccccc2)c(-c2ccccc2)n1 | > 10 |
| CN1C(=O)c2ccccc2OC12C=Cc1c(ccc3ccccc13)O2 (stereo not drawn) | 16 |
| CO/N=C(\C(=O)OC(=NC1CCCCC1)NC1CCCCC1)c1csc(NC(c2ccccc2)(c2ccccc2)c2ccccc2)n1 | > 10 |
| O=C1Sc2cc3ccccc3cc2C(=O)Sc2ccc(Br)cc21 | 19.3 |
| Cc1ccc2c(c1)C(=S)N1CSCC1c1nncn1-2 (stereo not drawn) | > 100 |
| CC(C)NC(=O)OCc1c(COC(=O)NC(C)C)c(-c2cc[n+](COC(=O)C3CC3)cc2)n2c1CCC2 | > 100 |
| COC(=O)C1=C(C(=O)OC)N(c2ccc(OC)cc2[N+](=O)[O-])C(c2ccc(C)cc2)=CC1c1ccc(OC)cc1OC (stereo not drawn) | 30.6 |
| COc1cccc(C2c3cc4c(cc3OC(N3CCCCC3)C2C)OCO4)c1O (stereo not drawn) | 25.6 |
| O=C1c2ccccc2C(=O)c2c(NCC(O)CO)ccc(NCC(O)CO)c21 (stereo not drawn) | > 100 |
| CC1=C(C)CC2C(=O)N(c3cc(C(C)(C)C)ccc3C(C)(C)C)C(=O)C2C1 (stereo not drawn) | > 100 |
| O=[N+]([O-])c1ccc(CN(CCCl)OCCCl)cc1 | > 100 |
| CC1=NN(c2nc(N)nc(/C(C#N)=C\c3ccc([N+](=O)[O-])s3)n2)C(C)(C)C1 | 4.4 |
| O=c1[nH]cnc2c1cnn2Cc1cn(CCCCO)nn1 | > 100 |
| C/C=C/C(CC(O)(C(F)(F)F)C(F)(F)F)=N/NC(N)=S | > 10 |
| O=C1/C(=C/c2ccc(Br)s2)NC(=S)N1c1ccccc1 | > 100 |
| CN1CCc2c([nH]c3ccccc23)C1 | > 100 |
| O=C(N/N=C(\c1ccccc1)c1ccccn1)NC1CCCCC1 | > 100 |
| CCO/C(O)=C(/C(=N)N1CCOCC1)C(=O)Nc1ccc(F)cc1 | > 100 |
| COc1cc(Nc2nc3ccccc3nc2C(=O)O)cc(OC)c1OC | > 100 |

test system: HOP-62 NSCLC; test: DTP human tumour cell line panel, 48 h

| Structure (SMILES) | TGI [µM] |
| --- | --- |
| Cc1ccc(S(=O)(=O)c2[nH]cc(/C(=C\C3CCCCC3)[N+](=O)[O-])c2C2CCCCC2)cc1 | 3.71 |
| O=C1C=CC(=O)c2c1ccc1c3ccccc3n(CCCCCn3c4ccccc4c4ccc5c(c43)C(=O)C=CC5=O)c21 | > 100 |
| C=C(Cl)C(=CCl)CCC(Br)C(C)(C)Cl (mixture of isomers) | > 10 |
| Nc1ccc2c(c1)C(=O)N1CCC[C@H]1C(=O)N2 | > 100 |
| Cc1ccc(/C=N/Nc2cc(C)c3cccc(C)c3n2)s1 | 25.7 |
| CC(=O)N(C(C)=O)c1ncc(-n2nc(-c3ccccc3)cc2-c2ccccc2)c(-c2ccccc2)n1 | > 10 |
| CN1C(=O)c2ccccc2OC12C=Cc1c(ccc3ccccc13)O2 (stereo not drawn) | 27.3 |
| CO/N=C(\C(=O)OC(=NC1CCCCC1)NC1CCCCC1)c1csc(NC(c2ccccc2)(c2ccccc2)c2ccccc2)n1 | > 10 |
| O=C1Sc2cc3ccccc3cc2C(=O)Sc2ccc(Br)cc21 | 18.3 |
| Cc1ccc2c(c1)C(=S)N1CSCC1c1nncn1-2 (stereo not drawn) | > 100 |
| CC(C)NC(=O)OCc1c(COC(=O)NC(C)C)c(-c2cc[n+](COC(=O)C3CC3)cc2)n2c1CCC2 | > 100 |
| COC(=O)C1=C(C(=O)OC)N(c2ccc(OC)cc2[N+](=O)[O-])C(c2ccc(C)cc2)=CC1c1ccc(OC)cc1OC (stereo not drawn) | > 72.7 |
| COc1cccc(C2c3cc4c(cc3OC(N3CCCCC3)C2C)OCO4)c1O (stereo not drawn) | 13.7 |
| O=C1c2ccccc2C(=O)c2c(NCC(O)CO)ccc(NCC(O)CO)c21 (stereo not drawn) | > 100 |
| CC1=C(C)CC2C(=O)N(c3cc(C(C)(C)C)ccc3C(C)(C)C)C(=O)C2C1 (stereo not drawn) | 82.3 |
| O=[N+]([O-])c1ccc(CN(CCCl)OCCCl)cc1 | > 100 |
| CC1=NN(c2nc(N)nc(/C(C#N)=C\c3ccc([N+](=O)[O-])s3)n2)C(C)(C)C1 | 1.75 |
| O=c1[nH]cnc2c1cnn2Cc1cn(CCCCO)nn1 | > 100 |
| C/C=C/C(CC(O)(C(F)(F)F)C(F)(F)F)=N/NC(N)=S | > 10 |
| O=C1/C(=C/c2ccc(Br)s2)NC(=S)N1c1ccccc1 | > 100 |
| CN1CCc2c([nH]c3ccccc23)C1 | > 100 |
| O=C(N/N=C(\c1ccccc1)c1ccccn1)NC1CCCCC1 | > 100 |
| CCO/C(O)=C(/C(=N)N1CCOCC1)C(=O)Nc1ccc(F)cc1 | > 100 |
| COc1cc(Nc2nc3ccccc3nc2C(=O)O)cc(OC)c1OC | > 100 |

test system: OVCAR-8 ovarian; test: DTP human tumour cell line panel, 48 h

| Structure (SMILES) | TGI [µM] |
| --- | --- |
| Cc1ccc(S(=O)(=O)c2[nH]cc(/C(=C\C3CCCCC3)[N+](=O)[O-])c2C2CCCCC2)cc1 | 2.78 |
| O=C1C=CC(=O)c2c1ccc1c3ccccc3n(CCCCCn3c4ccccc4c4ccc5c(c43)C(=O)C=CC5=O)c21 | 46.9 |
| C=C(Cl)C(=CCl)CCC(Br)C(C)(C)Cl (mixture of isomers) | > 10 |
| Nc1ccc2c(c1)C(=O)N1CCC[C@H]1C(=O)N2 | > 100 |
| Cc1ccc(/C=N/Nc2cc(C)c3cccc(C)c3n2)s1 | 26.9 |
| CC(=O)N(C(C)=O)c1ncc(-n2nc(-c3ccccc3)cc2-c2ccccc2)c(-c2ccccc2)n1 | > 10 |
| CN1C(=O)c2ccccc2OC12C=Cc1c(ccc3ccccc13)O2 (stereo not drawn) | 17.6 |
| CO/N=C(\C(=O)OC(=NC1CCCCC1)NC1CCCCC1)c1csc(NC(c2ccccc2)(c2ccccc2)c2ccccc2)n1 | > 10 |
| O=C1Sc2cc3ccccc3cc2C(=O)Sc2ccc(Br)cc21 | 9.53 |
| Cc1ccc2c(c1)C(=S)N1CSCC1c1nncn1-2 (stereo not drawn) | > 100 |
| CC(C)NC(=O)OCc1c(COC(=O)NC(C)C)c(-c2cc[n+](COC(=O)C3CC3)cc2)n2c1CCC2 | > 100 |
| COC(=O)C1=C(C(=O)OC)N(c2ccc(OC)cc2[N+](=O)[O-])C(c2ccc(C)cc2)=CC1c1ccc(OC)cc1OC (stereo not drawn) | 47.9 |
| COc1cccc(C2c3cc4c(cc3OC(N3CCCCC3)C2C)OCO4)c1O (stereo not drawn) | > 36.5 |
| O=C1c2ccccc2C(=O)c2c(NCC(O)CO)ccc(NCC(O)CO)c21 (stereo not drawn) | > 100 |
| CC1=C(C)CC2C(=O)N(c3cc(C(C)(C)C)ccc3C(C)(C)C)C(=O)C2C1 (stereo not drawn) | > 100 |
| O=[N+]([O-])c1ccc(CN(CCCl)OCCCl)cc1 | > 100 |
| CC1=NN(c2nc(N)nc(/C(C#N)=C\c3ccc([N+](=O)[O-])s3)n2)C(C)(C)C1 | 0.21 |
| O=c1[nH]cnc2c1cnn2Cc1cn(CCCCO)nn1 | > 100 |
| C/C=C/C(CC(O)(C(F)(F)F)C(F)(F)F)=N/NC(N)=S | > 10 |
| CN1CCc2c([nH]c3ccccc23)C1 | > 100 |
| CCO/C(O)=C(/C(=N)N1CCOCC1)C(=O)Nc1ccc(F)cc1 | > 100 |
| COc1cc(Nc2nc3ccccc3nc2C(=O)O)cc(OC)c1OC | > 100 |

test system: TK-10 renal; test: DTP human tumour cell line panel, 48 h

| Structure (SMILES) | TGI [µM] |
| --- | --- |
| Cc1ccc(S(=O)(=O)c2[nH]cc(/C(=C\C3CCCCC3)[N+](=O)[O-])c2C2CCCCC2)cc1 | 2.08 |
| O=C1C=CC(=O)c2c1ccc1c3ccccc3n(CCCCCn3c4ccccc4c4ccc5c(c43)C(=O)C=CC5=O)c21 | 26.8 |
| C=C(Cl)C(=CCl)CCC(Br)C(C)(C)Cl (mixture of isomers) | > 10 |
| Nc1ccc2c(c1)C(=O)N1CCC[C@H]1C(=O)N2 | > 100 |
| Cc1ccc(/C=N/Nc2cc(C)c3cccc(C)c3n2)s1 | > 100 |
| CC(=O)N(C(C)=O)c1ncc(-n2nc(-c3ccccc3)cc2-c2ccccc2)c(-c2ccccc2)n1 | > 10 |
| CN1C(=O)c2ccccc2OC12C=Cc1c(ccc3ccccc13)O2 (stereo not drawn) | > 61 |
| CO/N=C(\C(=O)OC(=NC1CCCCC1)NC1CCCCC1)c1csc(NC(c2ccccc2)(c2ccccc2)c2ccccc2)n1 | > 10 |
| O=C1Sc2cc3ccccc3cc2C(=O)Sc2ccc(Br)cc21 | 17.8 |
| Cc1ccc2c(c1)C(=S)N1CSCC1c1nncn1-2 (stereo not drawn) | > 100 |
| CC(C)NC(=O)OCc1c(COC(=O)NC(C)C)c(-c2cc[n+](COC(=O)C3CC3)cc2)n2c1CCC2 | > 100 |
| COC(=O)C1=C(C(=O)OC)N(c2ccc(OC)cc2[N+](=O)[O-])C(c2ccc(C)cc2)=CC1c1ccc(OC)cc1OC (stereo not drawn) | > 100 |
| COc1cccc(C2c3cc4c(cc3OC(N3CCCCC3)C2C)OCO4)c1O (stereo not drawn) | 62.8 |
| O=C1c2ccccc2C(=O)c2c(NCC(O)CO)ccc(NCC(O)CO)c21 (stereo not drawn) | > 100 |
| CC1=C(C)CC2C(=O)N(c3cc(C(C)(C)C)ccc3C(C)(C)C)C(=O)C2C1 (stereo not drawn) | > 100 |
| O=[N+]([O-])c1ccc(CN(CCCl)OCCCl)cc1 | > 100 |
| CC1=NN(c2nc(N)nc(/C(C#N)=C\c3ccc([N+](=O)[O-])s3)n2)C(C)(C)C1 | 1.26 |
| O=c1[nH]cnc2c1cnn2Cc1cn(CCCCO)nn1 | > 100 |
| C/C=C/C(CC(O)(C(F)(F)F)C(F)(F)F)=N/NC(N)=S | > 10 |
| O=C1/C(=C/c2ccc(Br)s2)NC(=S)N1c1ccccc1 | > 100 |
| CN1CCc2c([nH]c3ccccc23)C1 | > 100 |
| O=C(N/N=C(\c1ccccc1)c1ccccn1)NC1CCCCC1 | > 100 |
| CCO/C(O)=C(/C(=N)N1CCOCC1)C(=O)Nc1ccc(F)cc1 | > 100 |
| COc1cc(Nc2nc3ccccc3nc2C(=O)O)cc(OC)c1OC | 78.6 |

test system: SK-MEL-28 melanoma; test: DTP human tumour cell line panel, 48 h

| Structure (SMILES) | TGI [µM] |
| --- | --- |
| Cc1ccc(S(=O)(=O)c2[nH]cc(/C(=C\C3CCCCC3)[N+](=O)[O-])c2C2CCCCC2)cc1 | 2.75 |
| O=C1C=CC(=O)c2c1ccc1c3ccccc3n(CCCCCn3c4ccccc4c4ccc5c(c43)C(=O)C=CC5=O)c21 | 31.5 |
| C=C(Cl)C(=CCl)CCC(Br)C(C)(C)Cl (mixture of isomers) | > 10 |
| Nc1ccc2c(c1)C(=O)N1CCC[C@H]1C(=O)N2 | > 100 |
| Cc1ccc(/C=N/Nc2cc(C)c3cccc(C)c3n2)s1 | > 100 |
| CC(=O)N(C(C)=O)c1ncc(-n2nc(-c3ccccc3)cc2-c2ccccc2)c(-c2ccccc2)n1 | > 10 |
| CN1C(=O)c2ccccc2OC12C=Cc1c(ccc3ccccc13)O2 (stereo not drawn) | > 67.6 |
| CO/N=C(\C(=O)OC(=NC1CCCCC1)NC1CCCCC1)c1csc(NC(c2ccccc2)(c2ccccc2)c2ccccc2)n1 | > 10 |
| O=C1Sc2cc3ccccc3cc2C(=O)Sc2ccc(Br)cc21 | 9.79 |
| Cc1ccc2c(c1)C(=S)N1CSCC1c1nncn1-2 (stereo not drawn) | > 100 |
| CC(C)NC(=O)OCc1c(COC(=O)NC(C)C)c(-c2cc[n+](COC(=O)C3CC3)cc2)n2c1CCC2 | > 100 |
| COC(=O)C1=C(C(=O)OC)N(c2ccc(OC)cc2[N+](=O)[O-])C(c2ccc(C)cc2)=CC1c1ccc(OC)cc1OC (stereo not drawn) | > 100 |
| COc1cccc(C2c3cc4c(cc3OC(N3CCCCC3)C2C)OCO4)c1O (stereo not drawn) | 73.2 |
| O=C1c2ccccc2C(=O)c2c(NCC(O)CO)ccc(NCC(O)CO)c21 (stereo not drawn) | > 100 |
| CC1=C(C)CC2C(=O)N(c3cc(C(C)(C)C)ccc3C(C)(C)C)C(=O)C2C1 (stereo not drawn) | > 100 |
| O=[N+]([O-])c1ccc(CN(CCCl)OCCCl)cc1 | > 100 |
| CC1=NN(c2nc(N)nc(/C(C#N)=C\c3ccc([N+](=O)[O-])s3)n2)C(C)(C)C1 | 1.21 |
| O=c1[nH]cnc2c1cnn2Cc1cn(CCCCO)nn1 | > 100 |
| C/C=C/C(CC(O)(C(F)(F)F)C(F)(F)F)=N/NC(N)=S | > 10 |
| O=C1/C(=C/c2ccc(Br)s2)NC(=S)N1c1ccccc1 | > 100 |
| CN1CCc2c([nH]c3ccccc23)C1 | > 100 |
| O=C(N/N=C(\c1ccccc1)c1ccccn1)NC1CCCCC1 | > 100 |
| CCO/C(O)=C(/C(=N)N1CCOCC1)C(=O)Nc1ccc(F)cc1 | > 100 |
| COc1cc(Nc2nc3ccccc3nc2C(=O)O)cc(OC)c1OC | > 100 |

test system: OVCAR-5 ovarian; test: DTP human tumour cell line panel, 48 h

| Structure (SMILES) | TGI [µM] |
| --- | --- |
| Cc1ccc(S(=O)(=O)c2[nH]cc(/C(=C\C3CCCCC3)[N+](=O)[O-])c2C2CCCCC2)cc1 | 3.71 |
